Patent publication US20230148599A1, “FUNGICIDAL MIXTURES CONTAINING PYRAZOLE DERIVATIVES” (FMC Corporation, priority 2020, published 2023)

Columns and labels:
Format in all cases: in vivo
Septoria tritici = assay: Test A: wheat leaf blotch, preventive spray on wheat seedlings; details: Zymoseptoria tritici, 456 h, 100 = 100% disease control, 0 = no control, read-out: Test A disease control rating
From the text: (§1) General protocol for preparing test suspensions for Tests A-F: the test compounds were first dissolved in acetone in an amount equal to 3% of the final volume and then suspended at the desired concentration (in ppm) in acetone and purified water (50/50 mix by volume) containing 250 ppm of the surfactant PEG400 (polyhydric alcohol esters). The resulting test suspensions were then used in Tests A-F.
(§2) The test solution was sprayed to the point of run-off on wheat seedlings. The following day the seedlings were inoculated with a spore suspension of Septoria tritici (the causal agent of wheat leaf blotch) and incubated in a saturated atmosphere at 24° C. for 48 h, and then moved to a growth chamber at 20° C. for 17 days, after which time disease ratings were made.
(§3) A rating of 100 indicates 100% disease control and a rating of 0 indicates no disease control (relative to the controls). A dash (−) indicates the compound was not tested.

[1] = tested on: Puccinia recondita f. sp. tritici; assay: Test B: wheat leaf rust, preventive spray on wheat seedlings; details: 192 h, 100 = 100% disease control, 0 = no control, read-out: Test B disease control rating
From the text: as §1
as §2, with “Puccinia recondita f. sp.” for “Septoria”, “rust)” for “blotch)”, “20°” for “24°”, “24” for “48”, “7” for “17”
as §3

Phakopsora pachyrhizi = assay: Test D: Asian soybean rust, preventive spray on soybean seedlings; details: 216 h, 100 = 100% disease control, 0 = no control, read-out: Test D disease control rating
From the text: as §1
The test solution was sprayed to the point of run-off on soybean seedlings. The following day the seedlings were inoculated with a spore suspension of Phakopsora pachyrhizi (the causal agent of Asian soybean rust) and incubated in a saturated atmosphere at 22° C. for 24 h and then moved to a growth chamber at 22° C. for 8 days, after which time visual disease ratings were made.
as §3

Botrytis cinerea = assay: Test E: tomato Botrytis, preventive spray on tomato seedlings; details: 120 h, 100 = 100% disease control, 0 = no control, read-out: Test E disease control rating
From the text: as §1
(§4) The test suspension was sprayed to the point of run-off on tomato seedlings. The following day the seedlings were inoculated with a spore suspension of Botrytis cinerea (the causal agent of tomato Botrytis) and incubated in a saturated atmosphere at 20° C. for 48 h, and then moved to a growth chamber at 24° C. for 3 days, after which time visual disease ratings were made.
as §3

Alternaria solani = assay: Test F: tomato early blight, preventive spray on tomato seedlings; details: 120 h, 100 = 100% disease control, 0 = no control, read-out: Test F disease control rating
From the text: as §1
as §4, with “Alternaria solani” for “Botrytis cinerea”, “early blight)” for “Botrytis)”, “27°” for “20°”, “20°” for “24°”
as §3

Cc1nn(C)c(Nc2c(F)cccc2[N+](=O)[O-])c1-c1c(F)cc(F)cc1Br [Compound 1, 4-(2-bromo-4,6-difluorophenyl)-N-(2-fluoro-6-nitrophenyl)-1,3-dimethyl-1H-pyrazol-5-amine]
pest or weed control at 50 ppm (Septoria tritici): 100% | pest or weed control at 50 ppm [1]: 100% | pest or weed control at 50 ppm (Phakopsora pachyrhizi): 84% | pest or weed control at 50 ppm (Botrytis cinerea): 100% | pest or weed control at 50 ppm (Alternaria solani): 99%

Cc1nn(C)c(Nc2c(Cl)cc(F)cc2[N+](=O)[O-])c1-c1ccc(C#N)cc1Cl [Compound 18, 3-chloro-4-[5-[(2-chloro-4-fluoro-6-nitrophenyl)amino]-1,3-dimethyl-1H-pyrazol-4-yl]benzonitrile]
pest or weed control at 50 ppm (Septoria tritici): 100% | pest or weed control at 50 ppm [1]: 100% | pest or weed control at 50 ppm (Phakopsora pachyrhizi): 92% | pest or weed control at 50 ppm (Botrytis cinerea): 100% | pest or weed control at 50 ppm (Alternaria solani): 99%

Cc1nn(C)c(Nc2c(Cl)cc(F)cc2[N+](=O)[O-])c1-c1ccc(F)cc1Cl [Compound 19, N-(2-chloro-4-fluoro-6-nitrophenyl)-4-(2-chloro-4-fluorophenyl)-1,3-dimethyl-1H-pyrazol-5-amine]
pest or weed control at 50 ppm (Septoria tritici): 100% | pest or weed control at 50 ppm [1]: 100% | pest or weed control at 50 ppm (Phakopsora pachyrhizi): 98% | pest or weed control at 50 ppm (Botrytis cinerea): 100% | pest or weed control at 50 ppm (Alternaria solani): 99%

COc1cc(F)c(Nc2c(-c3c(F)cccc3Cl)c(C)nn2C)c([N+](=O)[O-])c1 [Compound 23, 4-(2-chloro-6-fluorophenyl)-N-(2-fluoro-4-methoxy-6-nitrophenyl)-1,3-dimethyl-1H-pyrazol-5-amine]
pest or weed control at 50 ppm (Septoria tritici): 100% | pest or weed control at 50 ppm [1]: 100% | pest or weed control at 50 ppm (Phakopsora pachyrhizi): 99% | pest or weed control at 50 ppm (Botrytis cinerea): 97% | pest or weed control at 50 ppm (Alternaria solani): 99%

COc1cc(F)c(Nc2c(-c3ccc(F)cc3F)c(C)nn2C)c([N+](=O)[O-])c1 [Compound 57, 4-(2,4-difluorophenyl)-N-(2-fluoro-4-methoxy-6-nitrophenyl)-1,3-dimethyl-1H-pyrazol-5-amine]
pest or weed control at 50 ppm (Septoria tritici): 100% | pest or weed control at 50 ppm [1]: 100% | pest or weed control at 50 ppm (Phakopsora pachyrhizi): 96% | pest or weed control at 50 ppm (Botrytis cinerea): 100% | pest or weed control at 50 ppm (Alternaria solani): 100%

Cc1nn(C)c(Nc2c(F)cccc2[N+](=O)[O-])c1-c1ccc(F)cc1Br [Compound 60, 4-(2-bromo-4-fluorophenyl)-N-(2-fluoro-6-nitrophenyl)-1,3-dimethyl-1H-pyrazol-5-amine]
pest or weed control at 10 ppm (Septoria tritici): 99% | pest or weed control at 50 ppm (Septoria tritici): 100% | pest or weed control at 10 ppm [1]: 100% | pest or weed control at 50 ppm [1]: 100% | pest or weed control at 10 ppm (Phakopsora pachyrhizi): 0% | pest or weed control at 50 ppm (Phakopsora pachyrhizi): 97% | pest or weed control at 10 ppm (Botrytis cinerea): 99% | pest or weed control at 50 ppm (Botrytis cinerea): 99% | pest or weed control at 10 ppm (Alternaria solani): 75% | pest or weed control at 50 ppm (Alternaria solani): 99%

Cc1nn(C)c(Nc2c(F)cc(Br)cc2[N+](=O)[O-])c1-c1ccc(F)cc1Cl [Compound 61, N-(4-bromo-2-fluoro-6-nitrophenyl)-4-(2-chloro-4-fluorophenyl)-1,3-dimethyl-1H-pyrazol-5-amine]
pest or weed control at 50 ppm (Septoria tritici): 100% | pest or weed control at 50 ppm [1]: 100% | pest or weed control at 50 ppm (Phakopsora pachyrhizi): 84% | pest or weed control at 50 ppm (Botrytis cinerea): 99% | pest or weed control at 50 ppm (Alternaria solani): 99%

Cc1nn(C)c(Nc2c(F)cccc2[N+](=O)[O-])c1-c1c(F)cc(F)cc1Cl [Compound 68, 4-(2-chloro-4,6-difluorophenyl)-N-(2-fluoro-6-nitrophenyl)-1,3-dimethyl-1H-pyrazol-5-amine]
pest or weed control at 10 ppm (Septoria tritici): 100% | pest or weed control at 50 ppm (Septoria tritici): 100% | pest or weed control at 10 ppm [1]: 100% | pest or weed control at 50 ppm [1]: 100% | pest or weed control at 10 ppm (Phakopsora pachyrhizi): 32% | pest or weed control at 50 ppm (Phakopsora pachyrhizi): 99% | pest or weed control at 10 ppm (Botrytis cinerea): 100% | pest or weed control at 50 ppm (Botrytis cinerea): 100% | pest or weed control at 10 ppm (Alternaria solani): 98% | pest or weed control at 50 ppm (Alternaria solani): 99%

CCc1nn(C)c(Nc2c(F)cccc2[N+](=O)[O-])c1-c1ccc(F)cc1Cl [Compound 72, 4-(2-chloro-4-fluorophenyl)-N-(2-fluoro-6-nitrophenyl)-3-ethyl-1-methyl-1H-pyrazol-5-amine]
pest or weed control at 10 ppm (Septoria tritici): 100% | pest or weed control at 50 ppm (Septoria tritici): 100% | pest or weed control at 10 ppm [1]: 85% | pest or weed control at 50 ppm [1]: 100% | pest or weed control at 10 ppm (Phakopsora pachyrhizi): 12% | pest or weed control at 50 ppm (Phakopsora pachyrhizi): 31% | pest or weed control at 10 ppm (Botrytis cinerea): 98% | pest or weed control at 50 ppm (Botrytis cinerea): 98% | pest or weed control at 10 ppm (Alternaria solani): 63% | pest or weed control at 50 ppm (Alternaria solani): 99%

COc1ccc(-c2c(C)nn(C)c2Nc2c(Cl)cc(F)cc2[N+](=O)[O-])c(Cl)c1 [Compound 73, N-(2-chloro-4-fluoro-6-nitrophenyl)-4-(2-chloro-4-methoxyphenyl)-1,3-dimethyl-1H-pyrazol-5-amine]
pest or weed control at 50 ppm (Septoria tritici): 100% | pest or weed control at 50 ppm [1]: 100% | pest or weed control at 50 ppm (Phakopsora pachyrhizi): 98% | pest or weed control at 50 ppm (Botrytis cinerea): 99% | pest or weed control at 50 ppm (Alternaria solani): 97%

Cc1cc(F)c(Nc2c(-c3ccc(F)cc3Cl)c(C)nn2C)c([N+](=O)[O-])c1 [Compound 93, 4-(2-chloro-4-fluorophenyl)-N-(2-fluoro-4-methyl-6-nitrophenyl)-1,3-dimethyl-1H-pyrazol-5-amine]
pest or weed control at 10 ppm (Septoria tritici): 99% | pest or weed control at 50 ppm (Septoria tritici): 100% | pest or weed control at 10 ppm [1]: 100% | pest or weed control at 50 ppm [1]: 100% | pest or weed control at 10 ppm (Phakopsora pachyrhizi): 87% | pest or weed control at 50 ppm (Phakopsora pachyrhizi): 100% | pest or weed control at 10 ppm (Botrytis cinerea): 99% | pest or weed control at 50 ppm (Botrytis cinerea): 100% | pest or weed control at 10 ppm (Alternaria solani): 99% | pest or weed control at 50 ppm (Alternaria solani): 99%

Cc1nn(C)c(Nc2ccc(F)cc2[N+](=O)[O-])c1-c1ccc(F)cc1Cl [Compound 111, 4-(2-chloro-4-fluorophenyl)-N-(4-fluoro-2-nitrophenyl)-1,3-dimethyl-1H-pyrazol-5-amine]
pest or weed control at 50 ppm (Septoria tritici): 100% | pest or weed control at 50 ppm [1]: 99% | pest or weed control at 50 ppm (Phakopsora pachyrhizi): 0% | pest or weed control at 50 ppm (Botrytis cinerea): 100% | pest or weed control at 50 ppm (Alternaria solani): 93%

Cc1nn(C)c(Nc2c(F)cccc2[N+](=O)[O-])c1-c1ccc(C#N)cc1Cl [Compound 113, 3-chloro-4-[5-[(2-fluoro-6-nitrophenyl)amino]-1,3-dimethyl-1H-pyrazol-4-yl]benzonitrile]
pest or weed control at 50 ppm (Septoria tritici): 100% | pest or weed control at 50 ppm [1]: 99% | pest or weed control at 50 ppm (Phakopsora pachyrhizi): 13% | pest or weed control at 50 ppm (Botrytis cinerea): 99% | pest or weed control at 50 ppm (Alternaria solani): 99%

Cc1nn(C)c(Nc2c(F)cccc2[N+](=O)[O-])c1-c1ccc(F)cc1F [Compound 118, 4-(2,4-difluorophenyl)-N-(2-fluoro-6-nitrophenyl)-1,3-dimethyl-1H-pyrazol-5-amine]
pest or weed control at 10 ppm (Septoria tritici): 100% | pest or weed control at 50 ppm (Septoria tritici): 100% | pest or weed control at 10 ppm [1]: 80% | pest or weed control at 50 ppm [1]: 100% | pest or weed control at 10 ppm (Phakopsora pachyrhizi): 0% | pest or weed control at 50 ppm (Phakopsora pachyrhizi): 0% | pest or weed control at 10 ppm (Botrytis cinerea): 99% | pest or weed control at 50 ppm (Botrytis cinerea): 100% | pest or weed control at 10 ppm (Alternaria solani): 60% | pest or weed control at 50 ppm (Alternaria solani): 99%

Cc1nn(C)c(Nc2c(F)cc(Cl)cc2[N+](=O)[O-])c1-c1ccc(F)cc1Cl [Compound 121, N-(4-chloro-2-fluoro-6-nitrophenyl)-4-(2-chloro-4-fluorophenyl)-1,3-dimethyl-1H-pyrazol-5-amine]
pest or weed control at 50 ppm (Septoria tritici): 100% | pest or weed control at 50 ppm [1]: 100% | pest or weed control at 50 ppm (Phakopsora pachyrhizi): 99% | pest or weed control at 50 ppm (Botrytis cinerea): 100% | pest or weed control at 50 ppm (Alternaria solani): 100%

Cc1cc(F)c(Nc2c(-c3ccc(C#N)cc3Cl)c(C)nn2C)c([N+](=O)[O-])c1 [Compound 127, 3-chloro-4-[5-[(2-fluoro-4-methyl-6-nitrophenyl)amino]-1,3-dimethyl-1H-pyrazol-4-yl]benzonitrile]
pest or weed control at 50 ppm (Septoria tritici): 100% | pest or weed control at 50 ppm [1]: 99% | pest or weed control at 50 ppm (Phakopsora pachyrhizi): 96% | pest or weed control at 50 ppm (Botrytis cinerea): 100% | pest or weed control at 50 ppm (Alternaria solani): 100%
